The nature of the assay: inhibitors of cytokine-induced nitrite release, dose response, cell-based, Griess absorbance, INS-1E, dry powder, set 3 (AID 488870). The following applies: INS-1E cytokine-induced nitrite, Griess absorbance, 48 h; at 19.5 µM (top of the series).

The values below come from PubChem BioAssay AID488870 (Broad Institute, 2010).

Active and inactive are the calls of the source.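 How the source made its calls: active means a drop in nitrite signal whose fitted half-maximal concentration is at most ten times the top tested dose; inconclusive means flat fit with 30 to 70% inhibition, or poor curve fit; inactive means the rest.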

As to `COc1ccc(S(=O)(=O)N(C)C[C@@H]2Oc3c(NC(=O)c4cccc5ccccc45)cccc3C(=O)N([C@@H](C)CO)C[C@H]2C)cc1`, the activity change, negative = inhibition was -13.8% (inactive).

With `COc1ccc(S(=O)(=O)N(C)C[C@@H]2Oc3ccc(NC(=O)Nc4cccc5ccccc45)cc3C(=O)N([C@@H](C)CO)C[C@H]2C)cc1`, the activity change, negative = inhibition is -15.4% (inactive).

With `C[C@H]1CN([C@@H](C)CO)C(=O)c2cccc(NC(=O)NC3CCCCC3)c2O[C@@H]1CN(C)S(C)(=O)=O`, the activity change, negative = inhibition is 3.92% (inactive).

For the compound `COc1ccc(S(=O)(=O)N(C)C[C@H]2Oc3c(NC(=O)Nc4cccc5ccccc45)cccc3C(=O)N([C@H](C)CO)C[C@H]2C)cc1`, the activity change, negative = inhibition is -1.83% (inactive).

Consider `C[C@@H]1CN([C@@H](C)CO)C(=O)c2cccc(NC(=O)Nc3cccc4ccccc34)c2O[C@H]1CN(C)S(=O)(=O)c1ccccc1`, for which the activity change, negative = inhibition is -19.1% (inactive).

`COc1ccc(S(=O)(=O)N(C)C[C@@H]2Oc3c(NC(=O)C4CCOCC4)cccc3C(=O)N([C@@H](C)CO)C[C@H]2C)cc1`: the activity change, negative = inhibition is 5.9% (inactive).

In the case of `C[C@@H]1CN([C@@H](C)CO)C(=O)c2cccc(NC(=O)Nc3cccc4ccccc34)c2O[C@H]1CN(C)C(=O)Nc1ccc(F)cc1`, the activity change, negative = inhibition is -13.6% (inactive).

Take `COc1ccc(S(=O)(=O)N(C)C[C@@H]2Oc3c(NC(=O)Nc4c(C)noc4C)cccc3C(=O)N([C@@H](C)CO)C[C@H]2C)cc1`: the activity change, negative = inhibition was -4.75% (inactive).

Consider `COc1ccc(S(=O)(=O)Nc2cccc3c2O[C@@H](CN(C)S(=O)(=O)c2ccc(OC)cc2)[C@H](C)CN([C@@H](C)CO)C3=O)cc1`, for which the activity change, negative = inhibition is -10.4% (inactive).

Consider `COc1ccc(S(=O)(=O)N(C)C[C@@H]2Oc3c(NC(=O)Nc4cccc5ccccc45)cccc3C(=O)N([C@@H](C)CO)C[C@@H]2C)cc1`, for which the activity change, negative = inhibition was -1.85% (inactive).

In the case of `C[C@@H]1CN([C@H](C)CO)C(=O)c2cccc(NC(=O)Nc3ccc(F)cc3)c2O[C@H]1CN(C)S(=O)(=O)c1ccc(Cl)cc1`, the activity change, negative = inhibition is -5.33% (inactive).

In the case of `C[C@@H]1CN([C@@H](C)CO)C(=O)c2cccc(NC(=O)Nc3ccccc3)c2O[C@H]1CN(C)S(=O)(=O)c1ccc(Cl)cc1`, the activity change, negative = inhibition was -8% (inactive).

With `COc1ccc(S(=O)(=O)N(C)C[C@@H]2Oc3c(NS(=O)(=O)c4cn(C)cn4)cccc3C(=O)N([C@@H](C)CO)C[C@H]2C)cc1`, the activity change, negative = inhibition was 4.99% (inactive).

Turning to `COc1ccc(S(=O)(=O)N(C)C[C@@H]2Oc3c(NC(=O)Nc4ccc5c(c4)OCO5)cccc3C(=O)N([C@@H](C)CO)C[C@H]2C)cc1`, the activity change, negative = inhibition is -8.76% (inactive).

`C[C@@H]1CN([C@@H](C)CO)C(=O)c2cccc(NC(=O)Nc3cccc4ccccc34)c2O[C@H]1CN(C)S(=O)(=O)c1cccs1`: the activity change, negative = inhibition is -14.1% (inactive).

With `Cc1ccc(S(=O)(=O)N(C)C[C@@H]2Oc3c(NC(=O)Nc4ccccc4)cccc3C(=O)N([C@H](C)CO)C[C@H]2C)cc1`, the activity change, negative = inhibition is 11.6% (inactive).

On to `COc1ccc(S(=O)(=O)N(C)C[C@@H]2Oc3c(NS(=O)(=O)c4ccccc4)cccc3C(=O)N([C@@H](C)CO)C[C@H]2C)cc1`, for which the activity change, negative = inhibition was 2.87% (inactive).

With `COc1ccc(S(=O)(=O)N(C)C[C@@H]2Oc3c(cccc3N(C)C)C(=O)N([C@@H](C)CO)C[C@H]2C)cc1`, the activity change, negative = inhibition was 4.92% (inactive).

In the case of `C[C@@H]1CN([C@@H](C)CO)C(=O)c2cccc(NC(=O)Nc3cccc4ccccc34)c2O[C@H]1CN(C)S(C)(=O)=O`, the activity change, negative = inhibition was 9.52% (inactive).

Turning to `C[C@@H]1CN([C@@H](C)CO)C(=O)c2cccc(NC(=O)Nc3ccc(F)cc3)c2O[C@H]1CN(C)S(=O)(=O)c1ccc(F)cc1`, the activity change, negative = inhibition is -6.48% (inactive).

With `COc1ccc(S(=O)(=O)N(C)C[C@@H]2Oc3c(NC(=O)Nc4cccc5ccccc45)cccc3C(=O)N(C(C)C)C[C@H]2C)cc1`, the activity change, negative = inhibition is -11.1% (inactive).

Turning to `C[C@@H]1CN([C@@H](C)CO)C(=O)c2cccc(NC(=O)Nc3ccccc3)c2O[C@H]1CN(C)S(=O)(=O)c1ccc(F)cc1`, the activity change, negative = inhibition was -6.44% (inactive).

For `COc1ccc(S(=O)(=O)N(C)C[C@@H]2Oc3c(NS(=O)(=O)c4ccc(F)cc4)cccc3C(=O)N([C@@H](C)CO)C[C@H]2C)cc1`, the activity change, negative = inhibition was 9.8% (inactive).

As for `C[C@@H]1CN([C@H](C)CO)C(=O)c2cccc(NC(=O)Nc3ccccc3)c2O[C@H]1CN(C)S(=O)(=O)c1ccc(Cl)cc1`, the activity change, negative = inhibition was 4.79% (inactive).

Consider `Cc1ccc(S(=O)(=O)N(C)C[C@@H]2Oc3c(NC(=O)Nc4cccc5ccccc45)cccc3C(=O)N([C@H](C)CO)C[C@H]2C)cc1`, for which the activity change, negative = inhibition is -10.1% (inactive).

Turning to `COc1ccc(S(=O)(=O)N(C)C[C@@H]2Oc3c(NS(=O)(=O)c4ccc(Cl)cc4)cccc3C(=O)N([C@@H](C)CO)C[C@H]2C)cc1`, the activity change, negative = inhibition is -7.18% (inactive).

Take `Cc1noc(C)c1NC(=O)N(C)C[C@@H]1Oc2c(NC(=O)Nc3cccc4ccccc34)cccc2C(=O)N([C@@H](C)CO)C[C@H]1C`: the activity change, negative = inhibition is -7.11% (inactive).

In the case of `COc1ccc(S(=O)(=O)N(C)C[C@@H]2Oc3c(NS(C)(=O)=O)cccc3C(=O)N([C@@H](C)CO)C[C@H]2C)cc1`, the activity change, negative = inhibition is -4.1% (inactive).

Regarding `COc1ccc(S(=O)(=O)N(C)C[C@@H]2Oc3c(NC(=O)Nc4cccc5ccccc45)cccc3C(=O)N([C@@H](C)CO)C[C@H]2C)cc1OC`, the activity change, negative = inhibition is -18.5% (inactive).

On to `C[C@@H]1CN([C@@H](C)CO)C(=O)c2cccc(NC(=O)Nc3cccc4ccccc34)c2O[C@H]1CN(C)CC1CC1`, for which the activity change, negative = inhibition is -0.187% (inactive).

As for `COc1ccc(S(=O)(=O)N(C)C[C@@H]2Oc3c(NC(=O)Nc4ccc(F)cc4)cccc3C(=O)N([C@H](C)CO)C[C@H]2C)cc1`, the activity change, negative = inhibition is 20.3% (inactive).

Turning to `COc1ccc(S(=O)(=O)N(C)C[C@@H]2Oc3c(NC(=O)c4cnccn4)cccc3C(=O)N([C@@H](C)CO)C[C@H]2C)cc1`, the activity change, negative = inhibition was -9.05% (inactive).

With `COc1ccc(S(=O)(=O)N(C)C[C@@H]2Oc3c(NS(=O)(=O)c4ccc(C)cc4)cccc3C(=O)N([C@@H](C)CO)C[C@H]2C)cc1`, the activity change, negative = inhibition was -5.68% (inactive).

Take `Cc1ccc(S(=O)(=O)N(C)C[C@@H]2Oc3c(NC(=O)Nc4ccccc4)cccc3C(=O)N([C@@H](C)CO)C[C@H]2C)cc1`: the activity change, negative = inhibition is -10.1% (inactive).

Regarding `COc1ccc(S(=O)(=O)N(C)C[C@@H]2Oc3c(NC(=O)C4CC4)cccc3C(=O)N([C@@H](C)CO)C[C@H]2C)cc1`, the activity change, negative = inhibition was -4.99% (inactive).

Regarding `COc1ccc(S(=O)(=O)N(C)C[C@@H]2Oc3c(NC(=O)C4CCCCC4)cccc3C(=O)N([C@@H](C)CO)C[C@H]2C)cc1`, the activity change, negative = inhibition was -0.334% (inactive).

Turning to `C[C@@H]1CN([C@@H](C)CO)C(=O)c2cccc(NS(=O)(=O)c3ccccc3)c2O[C@H]1CN(C)Cc1ccc(C(F)(F)F)cc1`, the activity change, negative = inhibition is -12.5% (inactive).
